Where “and” joins values, the source holds several entries; their conditions need not be identical. Identical values can stand only once.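 Grown in 96-well plates, cells were treated for 48 hours with each compound at five concentrations. Insufficient inhibition: endpoint recorded as highest concentration tested. Abbreviation: GI50, concentration required for 50% inhibition of growth. TGI is the concentration that stops growth completely.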
Key:
Assay in all cases: NCI anticancer screen, dose series, 48 h
NCI-H522 lung = test system: NCI-H522 lung
TK-10 renal = test system: TK-10 renal
RXF 393 renal = test system: RXF 393 renal
OVCAR-5 ovarian = test system: OVCAR-5 ovarian
NCI-H226 lung = test system: NCI-H226 lung
COLO 205 colon = test system: COLO 205 colon
HCT-116 colon = test system: HCT-116 colon
SK-MEL-5 melanoma = test system: SK-MEL-5 melanoma

| SMILES | TGI (NCI-H522 lung) | TGI (TK-10 renal) | TGI (RXF 393 renal) | TGI (OVCAR-5 ovarian) | TGI (NCI-H226 lung) | TGI (COLO 205 colon) | TGI (HCT-116 colon) | TGI (SK-MEL-5 melanoma) | GI50 (COLO 205 colon) | GI50 (NCI-H522 lung) | GI50 (RXF 393 renal) | GI50 (SK-MEL-5 melanoma) | GI50 (TK-10 renal) | GI50 (OVCAR-5 ovarian) | GI50 (HCT-116 colon) | GI50 (NCI-H226 lung) |
| --- | --- | --- | --- | --- | --- | --- | --- | --- | --- | --- | --- | --- | --- | --- | --- | --- |
| CCCCCCCCCCC/C(=N/O)c1ccc(O)c2ncccc12 | 6.57 µM | > 100 µM | 27.6 µM | 6.66 µM | 11.9 µM | > 100 µM | 59.9 µM | 4.18 µM |  |  |  |  |  |  |  |  |
| Clc1ccc(Cl)c2[s+]snc12 | 44 µM | > 100 µM |  | > 100 µM | > 100 µM | > 60.1 µM | > 54.9 µM | > 100 µM |  |  |  |  |  |  |  |  |
| COc1ccc(C=C2C(=O)OC(C)(C)OC2=O)cc1OC | > 100 µM | > 100 µM |  | > 100 µM |  | > 100 µM |  | > 100 µM |  |  |  |  |  |  |  |  |
| O=C1NC(=S)NC(=O)C1=Cc1cc2c(cc1[N+](=O)[O-])OCO2 | > 100 µM | > 100 µM | > 100 µM |  | > 100 µM | > 100 µM | > 100 µM | > 100 µM |  |  |  |  |  |  |  |  |
| CCCCCCCCCCCCCCCCCC(=O)OCC(CN(C)CCN(C)C)OC(=O)CCCCCCCCCCCCCCCCC (configuration not stated) | > 100 µM | > 100 µM | > 100 µM | > 100 µM | > 100 µM | > 100 µM | > 100 µM | > 100 µM |  |  |  |  |  |  |  |  |
| COC(=O)C1CC(C(=O)OC)c2nc3cc(C)ccc3nc21 (configuration not stated) | > 100 µM | > 100 µM |  | > 100 µM | > 100 µM | > 100 µM |  | > 100 µM |  |  |  |  |  |  |  |  |
| N#CC(C(=O)/C(=N/N)C(C#N)c1ccc(Cl)cc1)c1ccc(Cl)cc1 (configuration not stated) | > 100 µM | > 100 µM | > 100 µM | > 100 µM | > 100 µM | > 100 µM | > 100 µM | > 100 µM |  |  |  |  |  |  |  |  |
| CCOC(=O)CC(=O)Sc1ccccc1 | 24.3 µM | > 100 µM | 25.9 µM | > 100 µM | 58.4 µM | 52.9 µM | 26.8 µM | 58.5 µM |  |  |  |  |  |  |  |  |
| CCCN(CCCCC(NC(C)=O)C(=O)NCc1ccccc1)C(=O)NCCCl (configuration not stated) | > 100 µM | > 100 µM | > 100 µM |  | > 100 µM | > 100 µM | > 100 µM | > 100 µM |  |  |  |  |  |  |  |  |
| Cc1c(/C=N/NS(=O)(=O)c2ccccc2)no[n+]1[O-] | > 100 µM | > 100 µM | > 100 µM | > 100 µM |  | > 100 µM | > 100 µM | > 100 µM |  |  |  |  |  |  |  |  |
| CCOc1ccc(N=Cc2cccc3cccnc23)cc1 |  | > 100 µM | > 100 µM | > 100 µM | > 100 µM | > 100 µM | > 100 µM | > 100 µM |  |  |  |  |  |  |  |  |
| Clc1ccc(-n2nnc(C3=NCCN3)c2-c2ccccc2)cc1 | > 100 µM | > 100 µM | > 100 µM | > 100 µM | > 100 µM | > 100 µM | > 100 µM | > 100 µM |  |  |  |  |  |  |  |  |
| COC(=O)C1=C(C)N(NC(N)=O)C2(N)N(NC(N)=O)C(C)=C(C(=O)OC)C12C(=O)OC (configuration not stated) | > 100 µM | > 100 µM |  | > 100 µM | > 100 µM | > 100 µM | > 100 µM |  |  |  |  |  |  |  |  |  |
| CC(O)/C=C/C(CCC(C)CO)C(C)C (configuration not stated) | > 100 µM | > 100 µM | > 100 µM | > 100 µM |  | > 100 µM | > 100 µM | > 100 µM |  |  |  |  |  |  |  |  |
| CC1OC(n2ncc(=O)[nH]c2=O)C=CC1=O (configuration not stated) | 37.6 µM and 36.2 µM | > 100 µM |  | > 100 µM | > 100 µM | > 100 µM | > 100 µM |  | > 100 µM and 36.9 µM |  |  |  |  |  |  |  |
| O=C1C=C[C@@]23CC1C(O)C[C@H]2C=Cc1ccccc13 (some centres not stated) | > 100 µM |  |  | > 100 µM | > 100 µM | > 100 µM | > 100 µM | > 100 µM |  |  |  |  |  |  |  |  |
| O=C1c2cccc3cc([N+](=O)[O-])cc(c23)C(=O)N1CCNCCNCCNCCN1C(=O)c2cccc3cc([N+](=O)[O-])cc(c23)C1=O | 0.101 µM and 0.317 µM | 0.321 µM | 0.269 µM and 0.169 µM | 0.326 µM | 0.309 µM and 0.315 µM |  | 1.08 µM | 1.52 µM and 0.174 µM |  | < 0.001 µM | 0.0162 µM | 0.0176 µM |  |  |  |  |
| [Cl][Bi]([O]c1ccccn1)[O]c1ccccn1 |  | > 100 µM | > 100 µM | > 100 µM |  | > 100 µM | > 100 µM | > 100 µM | > 100 µM |  | > 100 µM | 40.2 µM | > 100 µM | > 100 µM | > 100 µM |  |
| CCN1C2=NC(=O)N(C)C(=O)C2(Cl)C(C(SC)S(=O)(=O)c2ccc(C)cc2)c2ccccc21 (configuration not stated) | 25.9 µM | > 100 µM |  | > 100 µM | > 100 µM | 99.2 µM | 53.6 µM | > 100 µM |  |  |  |  |  |  |  |  |
| CSc1nc(NC2OCC(OC(C)=O)C(OC(C)=O)C2OC(C)=O)c2c(OC(C)=O)c(C)c(=O)oc2n1 (configuration not stated) |  | > 100 µM | > 100 µM | > 100 µM | > 100 µM | > 100 µM | > 100 µM | > 100 µM |  |  |  |  |  |  |  |  |
| O=S(=O)([O-])c1cccc2cccc(N=Cc3ccccc3[O-])c12.O=S(=O)([O-])c1cccc2cccc(N=Cc3ccccc3[O-])c12.[O]=[U]=[O] | > 100 µM | 67.3 µM | 25.1 µM | > 100 µM | > 100 µM | > 100 µM | > 100 µM |  | 64.8 µM | > 100 µM | 10.7 µM |  | 21.3 µM | > 100 µM | 22.3 µM | 84.9 µM |
